Consider 10 compounds from ChEMBL document CHEMBL3638769, “Inhibitors of STAT3” (2015).

Sequence of Signal transducer and activator of transcription 3 (P40763 whole entry): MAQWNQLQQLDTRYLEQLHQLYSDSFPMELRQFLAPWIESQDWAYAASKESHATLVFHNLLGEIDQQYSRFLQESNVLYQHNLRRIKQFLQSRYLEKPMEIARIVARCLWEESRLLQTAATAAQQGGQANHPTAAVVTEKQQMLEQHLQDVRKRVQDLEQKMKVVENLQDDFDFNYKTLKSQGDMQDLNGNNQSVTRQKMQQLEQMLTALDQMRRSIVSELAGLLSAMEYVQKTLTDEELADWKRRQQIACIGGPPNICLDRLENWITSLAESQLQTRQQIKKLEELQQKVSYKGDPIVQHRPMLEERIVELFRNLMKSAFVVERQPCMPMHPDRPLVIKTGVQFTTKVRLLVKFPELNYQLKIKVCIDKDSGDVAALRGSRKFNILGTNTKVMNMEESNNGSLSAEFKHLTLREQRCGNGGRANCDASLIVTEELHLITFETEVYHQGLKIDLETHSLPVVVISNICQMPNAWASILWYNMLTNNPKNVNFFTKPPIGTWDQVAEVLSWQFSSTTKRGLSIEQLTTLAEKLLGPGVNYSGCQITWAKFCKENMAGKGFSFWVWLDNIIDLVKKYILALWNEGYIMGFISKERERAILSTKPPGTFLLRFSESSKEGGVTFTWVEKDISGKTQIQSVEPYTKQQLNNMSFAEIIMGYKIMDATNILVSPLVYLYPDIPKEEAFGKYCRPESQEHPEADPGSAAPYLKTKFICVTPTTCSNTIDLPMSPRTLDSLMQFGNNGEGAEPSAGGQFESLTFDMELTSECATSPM

This test addresses Signal transducer and activator of transcription 3 (Homo sapiens, UniProt P40763). Put plainly: EMSA Based Assay: A screening process evaluated in vitro disruption of STAT3(dimer)-DNA formation through a previously published EMSA based assays, giving a valuable insight into the inhibitor's mode of action against the STAT3 homo-dimer.
In general, IC50 refers to the point on the concentration scale where inhibition reaches its midpoint. Low values mean inhibition by little substance, high ones a need for much substance. With `CCCCCCNC(=O)c1nc(-c2cccc3ccccc23)sc1Cc1ccc(OP(=O)(O)O)cc1`, 25 µM corresponded to half-maximal inhibition (IC50). That is a double-digit micromolar value.

The compound `O=C(Nc1ccc(C2CCCCC2)cc1)c1nc(-c2ccccc2)oc1Cc1ccc(OP(=O)(O)O)cc1` gave an IC50 of 33 µM. This IC50 and that of the compound before are within 1.5-fold of each other.

As to `CCCCCCNC(=O)c1nc(-c2cccc3ccccc23)oc1Cc1ccc(OP(=O)(O)O)cc1`, half-maximal inhibition (IC50) was put at 58 µM.

Regarding `O=C(O)c1nc(-c2ccccc2)oc1Cc1ccc(OP(=O)(O)O)cc1`, the IC50 is over 1000 µM.

In the case of `CCCCCCNC(=O)c1nc(-c2ccccc2)oc1Cc1ccc(OP(=O)(O)O)cc1`, the 50% inhibitory concentration (IC50) was over 1000 µM.

Consider `CCCCCCNC(=O)c1nc(-c2ccccc2)sc1Cc1ccc(OP(=O)(O)O)cc1`, for which the half-maximal inhibitory concentration (IC50) is 150 µM.

For `O=C(Nc1ccc(C2CCCCC2)cc1)c1nc(-c2ccccc2)sc1Cc1ccc(OP(=O)(O)O)cc1`, the IC50 worked out at 775 µM.

As to `O=C(Nc1ccc(C2CCCCC2)cc1)c1nc(-c2ccccc2)oc1Cc1ccc(O)cc1`, the concentration for half-maximal inhibition (IC50) was over 1000 µM.

`O=C(Nc1ccc(C2CCCCC2)cc1)c1nc(-c2cccc3ccccc23)oc1Cc1ccc(OP(=O)(O)O)cc1` showed an IC50 of 255 µM.

Compound `O=C(Nc1ccc(C2CCCCC2)cc1)c1nc(-c2cccc3ccccc23)sc1Cc1ccc(OP(=O)(O)O)cc1` showed an IC50 of 350 µM.
